Data: US11168102B1, “Bicyclic heteroaryl compounds and uses thereof” (Revolution Medicines, Inc., priority 2019, dated 2021)
pIC50: −log10 of the molar value.

Test system: cellular pERK in PC-9 cells (EGFR Ex19Del)
Assay: Potency assay: pERK (AlphaLISA SureFire Ultra p-ERK1/2) in PC-9 cells
Format: cell-based
Details: Homo sapiens, PC-9, 1 h, PC-9 cells (EGFR Ex19Del), 1 hour incubation, AlphaLISA SureFire Ultra p-ERK1/2; read-out: SOS1 pERK IC50

| SMILES | pIC50 |
| --- | --- |
| CN=S1(=O)CCC(F)(c2cc3c(N[C@H](C)c4cccc(C(F)F)c4F)ncnc3n(C)c2=O)CC1 (single isomer, unassigned) [Example 51] | 7.39 |
| CC(=O)N1CCC(c2cc3c(N[C@H](C)c4cc(C(F)F)cc(C5(F)CNC5)c4)ncnc3n(C)c2=O)CC1 [Example 43, 6-(1-acetyl-4-piperidyl)-4-[[(1R)-1-[3-(difluoromethyl)-5-(3-fluoroazetidin-3-yl)phenyl]ethyl]amino]-8-methyl-pyrido[2,3-d]pyrimidin-7-one] | < 5.14 |
| C[C@@H](Nc1ncnc2c1cc(C1CC3(C1)CS(=O)(=O)C3)c(=O)n2C)c1cccc(C(F)F)c1F [Example 33, 6-(4-{[(1R)-1-[3-(difluoromethyl)-2-fluorophenyl]ethyl]amino}-8-methyl-7-oxo-7H,8H-pyrido[2,3-d]pyrimidin-6-yl)-2λ^6-thiaspiro[3.3]heptane-2,2-dione] | 6.84 |
| C[C@@H](Nc1ncnc2c1cc(C1=CC[P@](C)(=O)CC1)c(=O)n2C)c1cccc(C(F)F)c1F [Example 1-32] | 7.03 |
| C[C@@H](Nc1ncnc2c1cc(C(=O)N1CC(N3CC(C)(O)C3)C1)c(=O)n2C)c1cccc(C(F)F)c1F [Example 26-45] | 6.28 |
| CC(=O)N1CCC(c2cc3c(N[C@H](C)c4cccc(C(F)(F)C5CN(C6CC6)CCO5)c4F)ncnc3n(C)c2=O)CC1 (stereo partly drawn) [Example 55, 6-(1-acetyl-4-piperidyl)-4-[[(1R)-1-[3-[(4-cyclopropylmorpholin-2-yl)-difluoro-methyl]-2-fluoro-phenyl]ethyl]amino]-8-methyl-pyrido[2,3-d]pyrimidin-7-one] | 6.96 |
| C[C@@H](Nc1ncnc2c1cc(C1=CCS(=O)(=O)CC1)c(=O)n2C)c1cccc(C(F)F)c1CC#N [Example 63, 2-[2-(difluoromethyl)-6-[(1R)-1-[[6-(1,1-dioxo-3,6-dihydro-2H-thiopyran-4-yl)-8-methyl-7-oxo-pyrido[2,3-d]pyrimidin-4-yl]amino]ethyl]phenyl]acetonitrile] | < 5.00 |
| C[C@@H](Nc1ncnc2c1cc(C1CCNCC1)c(=O)n2C)c1cccc(C(F)F)c1F [Example 1-28] | 6.90 |
| C[C@@H](Nc1ncnc2c1cc(C(=O)N1CCC(O)(C(F)(F)F)CC1)c(=O)n2C)c1cccc(C(F)F)c1F [Example 26-50] | 6.06 |
| C[C@@H](Nc1ncnc2c1cc(C1=CCN(CC(F)(F)F)CC1)c(=O)n2C)c1cccc(C(F)F)c1F [Example 1-27] | 6.50 |
| C[C@@H](Nc1ncnc2c1cc(C1=CCS(=O)(=O)CC1)c(=O)n2C)c1cccc(C(F)(F)CN)c1F [Example 42, 4-(4-{[(1R)-1-[3-(2-amino-1,1-difluoroethyl)-2-fluorophenyl]ethyl]amino}-8-methyl-7-oxo-7H,8H-pyrido[2,3-d]pyrimidin-6-yl)-3,6-dihydro-2H-1λ^6-thiopyran-1,1-dione] | 6.62 |
| CN=S1(=O)CC=C(c2cc3c(N[C@H](C)c4cccc(C(F)F)c4F)ncnc3n(C)c2=O)CC1 (stereo partly drawn) [Example 24, 4-(((R)-1-(3-(difluoromethyl)-2-fluorophenyl)ethyl)amino)-8-methyl-6-(1-(methylimino)-1-oxido-1,2,3,6-tetrahydro-1λ^6-thiopyran-4-yl)pyrido[2,3-d]pyrimidin-7(8H)-one] | 7.21 |
| C[C@@H](Nc1ncnc2c1cc(C1CCS(=N)(=O)CC1)c(=O)n2C)c1cccc(C(F)F)c1F (stereo partly drawn) [Example 67, 4-[[(1R)-1-[3-(difluoromethyl)-2-fluoro-phenyl]ethyl]amino]-6-(1-imino-1-oxo-thian-4-yl)-8-methyl-pyrido[2,3-d]pyrimidin-7-one] | 7.79 |
| C[C@@H](Nc1ncnc2c1cc(C(=O)N1CCC13CS(=O)(=O)C3)c(=O)n2C)c1cccc(C(F)F)c1F [Example 26-52] | 6.82 |
| Cc1nc(N[C@H](C)c2cc(N)cc(C(F)(F)F)c2)c2cc(C3=CCOCC3)c(=O)n(C)c2n1 [Example 7, (R)-4-((1-(3-amino-5-(trifluoromethyl)phenyl)ethyl)amino)-6-(3,6-dihydro-2H-pyran-4-yl)-2,8-dimethylpyrido[2,3-d]pyrimidin-7(8H)-one] | 7.14 |
| C[C@@H](Nc1ncnc2c1cc(C(=O)N1CCC[C@@H]1c1nnn[nH]1)c(=O)n2C)c1cccc(C(F)F)c1F [Example 26-39] | < 5.00 |

The next lines start with the values.

| pIC50 | SMILES |
| --- | --- |
| 6.47 | C[C@@H](Nc1ncnc2c1cc(C1CCN(S(C)(=O)=O)C1)c(=O)n2C)c1cccc(C(F)F)c1F (some centres unmarked) [Example 33-10] |
| 7.27 | COC1(c2cc3c(N[C@H](C)c4cccc(C(F)F)c4F)ncnc3n(C)c2=O)CCCN(C(C)=O)CC1 (some centres unmarked) [Example 32-39] |
| 7.04 | CC(=O)N1CC(F)(c2cc3c(N[C@H](C)c4cccc(C(F)F)c4F)ncnc3n(C)c2=O)C1 [Example 29-2] |
| 6.43 | C[C@@H](Nc1ncnc2c1cc(C1(O)CCN(C(=O)OC(C)(C)C)C1)c(=O)n2C)c1cccc(C(F)F)c1F (some centres unmarked) [Example 28-9] |
| 6.74 | CC(=O)N1CC(C#N)(c2cc3c(N[C@H](C)c4cccc(C(F)F)c4F)ncnc3n(C)c2=O)C1 [Example 36-3] |
| 7.27 | C[C@@H](Nc1ncnc2c1cc(C1(F)CC3(C1)CS(=O)(=O)C3)c(=O)n2C)c1cccc(C(F)F)c1F [Example 29-8] |
| 6.82 | CO[C@@]1(c2cc3c(N[C@H](C)c4cccc(C(F)F)c4F)ncnc3n(C)c2=O)C[C@H](C)N(C(C)=O)C1 [Example 32-50] |
| 6.11 | CC(=O)NC1(c2cc3c(N[C@H](C)c4cccc(C(F)F)c4F)ncnc3n(C)c2=O)CCS(=O)(=O)CC1 [Example 31-3] |
| 7.93 | COC1(c2cc3c(N[C@H](C)c4cccc(C(F)F)c4F)ncnc3n(C)c2=O)C[C@@H](C)N(C(C)=O)C1 (some centres unmarked) [Example 32-37] |
| 7.08 | C[C@@H](Nc1ncnc2c1cc(C1(OC3COC3)CCS(=O)(=O)CC1)c(=O)n2C)c1cccc(C(F)F)c1F [Example 32-57] |
| 6.57 | CO[C@]1(c2cc3c(N[C@H](C)c4cccc(C(F)F)c4F)ncnc3n(C)c2=O)CCN(S(C)(=O)=O)C1 [Example 32-16] |
| 7.95 | CO[C@]1(c2cc3c(N[C@H](C)c4cccc(C(F)F)c4F)ncnc3n(C)c2=O)CCN(C(C)=O)C1 [Example 32-19] |
| 6.95 | CC(=O)N1CC[C@H](c2cc3c(N[C@H](C)c4cccc(C(F)F)c4F)ncnc3n(C)c2=O)C1 [Example 33-15] |
| 8.00 | CO[C@]1(c2cc3c(N[C@H](C)c4cccc(C(F)F)c4F)ncnc3n(C)c2=O)CCN(C(C)=O)C1 [Example 32-2] |
| 6.91 | CC(=O)N1CCC(C#N)(c2cc3c(N[C@H](C)c4cccc(C(F)F)c4F)ncnc3n(C)c2=O)C1 (some centres unmarked) [Example 36-5] |
| 7.36 | CC(=O)N1CC[C@](C#N)(c2cc3c(N[C@H](C)c4cccc(C(F)F)c4F)ncnc3n(C)c2=O)C1 [Example 36-10] |
| 7.49 | CC(=O)N1CCC(OC2CC2)(c2cc3c(N[C@H](C)c4cccc(C(F)F)c4F)ncnc3n(C)c2=O)CC1 [Example 32-44] |
| 6.71 | C[C@@H](Nc1ncnc2c1cc(C1(F)CCN(C3COC3)CC1)c(=O)n2C)c1cccc(C(F)F)c1F [Example 29-13] |
| 6.63 | CO[C@@]1(c2cc3c(N[C@H](C)c4cccc(C(F)F)c4F)ncnc3n(C)c2=O)CCN(C(C)=O)[C@@H](C)C1 [Example 32-30] |
| 6.79 | C[C@@H](Nc1ncnc2c1cc(C1(F)CCP(C)(=O)CC1)c(=O)n2C)c1cccc(C(F)F)c1F (some centres unmarked) [Example 29-9] |
| 6.42 | COC1(c2cc3c(N[C@H](C)c4cccc(C(F)F)c4F)ncnc3n(C)c2=O)CC(N(C)C(C)=O)C1 (stereo in doubt) [Example 32-40] |

Same assay, conditions: Homo sapiens, PC-9, 1 h, read-out: SOS1 pERK IC50

| SMILES | pIC50 |
| --- | --- |
| C[C@@H](Nc1ncnc2c1cc(C1(C#N)CCN(C)CC1)c(=O)n2C)c1cccc(C(F)F)c1F [Example 36-2] | 7.20 |
| C[C@@H](Nc1ncnc2c1cc(C1(O)CCN(C)CC1)c(=O)n2C)c1cccc(C(F)F)c1F [Example 28-1] | 6.73 |
| Cc1nc(N[C@H](C)c2cccc(C(F)F)c2F)c2cc(C3(O)CCN(C)CC3)c(=O)n(C)c2n1 [Example 28-2] | 6.24 |

Same assay, conditions: PC-9 cells (EGFR Ex19Del), 1 hour incubation, AlphaLISA SureFire Ultra p-ERK1/2; read-out: SOS1 pERK IC50

| SMILES | pIC50 |
| --- | --- |
| C[C@@H](Nc1ncnc2c1cc(C1=CCS(=O)(=NC#N)CC1)c(=O)n2C)c1cccc(C(F)F)c1F (single isomer, unassigned) [Example 46] | 7.36 |
| C[C@@H](Nc1ncnc2c1cc(C1CCS(=O)(=O)C1)c(=O)n2C)c1cccc(C(F)F)c1F (some centres unmarked) [Example 33-21] | 7.28 |
| CN=S1(=O)CCC(F)(c2cc3c(N[C@H](C)c4cccc(C(F)F)c4F)ncnc3n(C)c2=O)CC1 (stereo partly drawn) [Example 52, 4-(((R)-1-(3-(difluoromethyl)-2-fluorophenyl)ethyl)amino)-6-((1R,4r)-4-fluoro-1-(methylimino)-1-oxidohexahydro-1λ-thiopyran-4-yl)-8-methylpyrido[2,3-d]pyrimidin-7(8H)-one] | 7.15 |

Further lines, results first:

| pIC50 | SMILES |
| --- | --- |
| 7.08 | C[C@@H](Nc1ncnc2c1cc(C13CCOCC1C3)c(=O)n2C)c1cccc(C(F)F)c1F (single isomer, unassigned) [Example 54-2] |
| 7.07 | C[C@@H](Nc1ncnc2c1cc(C1CCP(C)(=O)CC1)c(=O)n2C)c1cccc(C(F)F)c1F (some centres unmarked) [Example 33-23] |
| 6.81 | COC1(c2cc3c(N[C@H](C)c4cccc(C(F)F)c4F)ncnc3n(C)c2=O)CCS(=O)(=O)C(C)C1 (some centres unmarked) [Example 32-64] |
| 7.09 | C[C@@H](Nc1ncnc2c1cc(C1(C#N)CCP(C)(=O)CC1)c(=O)n2C)c1cccc(C(F)F)c1F (some centres unmarked) [Example 36-13] |
| 6.57 | CC1CC(c2cc3c(N[C@H](C)c4cccc(C(F)F)c4F)ncnc3n(C)c2=O)CCS1(=O)=O (some centres unmarked) [Example 33-9] |
| 7.25 | C[C@@H](Nc1ncnc2c1cc(C1(C#N)CCC3(CC1)CS(=O)(=NC1CC1)C3)c(=O)n2C)c1cccc(C(F)F)c1F (single isomer, unassigned) [Example 58-2] |
| 6.74 | COC1(c2cc3c(N[C@H](C)c4cccc(C(F)F)c4F)ncnc3n(C)c2=O)CCN(C(C)=O)C2(CC2)C1 (some centres unmarked) [Example 32-43] |
